Measurements taken from ChEMBL document CHEMBL4138146, “A Schmidt rearrangement-mediated synthesis of novel tetrahydro-benzo[1,4]diazepin-5-ones as potential anticancer and antiprotozoal agents” (Eur J Med Chem, 2017).

What was measured:
Format in all cases: functional
CCRF-CEM = assay: Growth inhibition of human CCRF-CEM cells assessed as cell growth at 10 uM incubated for 48 hrs by sulforhodamine B assay relative to control; conditions: read-out: Activity
A549 = assay: Growth inhibition of human A549/ATCC cells assessed as cell growth at 10 uM incubated for 48 hrs by sulforhodamine B assay relative to control; conditions: A549, 48 h, read-out: Activity
HOP-62 = assay: Growth inhibition of human HOP62 cells assessed as cell growth at 10 uM incubated for 48 hrs by sulforhodamine B assay relative to control; conditions: HOP-62, 48 h, read-out: Activity
HOP-92 = assay: Growth inhibition of human HOP92 cells assessed as cell growth at 10 uM incubated for 48 hrs by sulforhodamine B assay relative to control; conditions: HOP-92, 48 h, read-out: Activity
NCI-H226 = assay: Growth inhibition of human NCI-H226 cells assessed as cell growth at 10 uM incubated for 48 hrs by sulforhodamine B assay relative to control; conditions: NCI-H226, 48 h, read-out: Activity
NCI-H522 = assay: Growth inhibition of human NCI-H522 cells assessed as cell growth at 10 uM incubated for 48 hrs by sulforhodamine B assay relative to control; conditions: NCI-H522, 48 h, read-out: Activity
COLO 205 = assay: Growth inhibition of human COLO205 cells assessed as cell growth at 10 uM incubated for 48 hrs by sulforhodamine B assay relative to control; conditions: COLO 205, 48 h, read-out: Activity
HCC 2998 = assay: Growth inhibition of human HCC2998 cells assessed as cell growth at 10 uM incubated for 48 hrs by sulforhodamine B assay relative to control; conditions: HCC 2998, 48 h, read-out: Activity
HT-29 = assay: Growth inhibition of human HT-29 cells assessed as cell growth at 10 uM incubated for 48 hrs by sulforhodamine B assay relative to control; conditions: HT-29, 48 h, read-out: Activity
KM12 = assay: Growth inhibition of human KM12 cells assessed as cell growth at 10 uM incubated for 48 hrs by sulforhodamine B assay relative to control; conditions: KM12, 48 h, read-out: Activity
SF-268 = assay: Growth inhibition of human SF268 cells assessed as cell growth at 10 uM incubated for 48 hrs by sulforhodamine B assay relative to control; conditions: SF-268, 48 h, read-out: Activity
SF-539 = assay: Growth inhibition of human SF539 cells assessed as cell growth at 10 uM incubated for 48 hrs by sulforhodamine B assay relative to control; conditions: SF-539, 48 h, read-out: Activity
SNB-19 = assay: Growth inhibition of human SNB19 cells assessed as cell growth at 10 uM incubated for 48 hrs by sulforhodamine B assay relative to control; conditions: SNB-19, 48 h, read-out: Activity
SNB-75 = assay: Growth inhibition of human SNB75 cells assessed as cell growth at 10 uM incubated for 48 hrs by sulforhodamine B assay relative to control; conditions: SNB-75, 48 h, read-out: Activity
U-251 = assay: Growth inhibition of human U251 cells assessed as cell growth at 10 uM incubated for 48 hrs by sulforhodamine B assay relative to control; conditions: U-251, 48 h, read-out: Activity
LOX IMVI = assay: Growth inhibition of human LOXIMVI cells assessed as cell growth at 10 uM incubated for 48 hrs by sulforhodamine B assay relative to control; conditions: read-out: Activity
Malme-3M = assay: Growth inhibition of human MALME-3M cells assessed as cell growth at 10 uM incubated for 48 hrs by sulforhodamine B assay relative to control; conditions: read-out: Activity
SK-MEL-2 = assay: Growth inhibition of human SK-MEL-2 cells assessed as cell growth at 10 uM incubated for 48 hrs by sulforhodamine B assay relative to control; conditions: SK-MEL-2, 48 h, read-out: Activity
SK-MEL-28 = assay: Growth inhibition of human SK-MEL-28 cells assessed as cell growth at 10 uM incubated for 48 hrs by sulforhodamine B assay relative to control; conditions: SK-MEL-28, 48 h, read-out: Activity
UACC-62 = assay: Growth inhibition of human UACC62 cells assessed as cell growth at 10 uM incubated for 48 hrs by sulforhodamine B assay relative to control; conditions: UACC-62, 48 h, read-out: Activity
OVCAR-3 = assay: Growth inhibition of human OVCAR3 cells assessed as cell growth at 10 uM incubated for 48 hrs by sulforhodamine B assay relative to control; conditions: OVCAR-3, 48 h, read-out: Activity
OVCAR-4 = assay: Growth inhibition of human OVCAR4 cells assessed as cell growth at 10 uM incubated for 48 hrs by sulforhodamine B assay relative to control; conditions: OVCAR-4, 48 h, read-out: Activity
OVCAR-8 = assay: Growth inhibition of human OVCAR8 cells assessed as cell growth at 10 uM incubated for 48 hrs by sulforhodamine B assay relative to control; conditions: OVCAR-8, 48 h, read-out: Activity
NCI/ADR-RES = assay: Growth inhibition of human NCI/ADR-RES cells assessed as cell growth at 10 uM incubated for 48 hrs by sulforhodamine B assay relative to control; conditions: read-out: Activity
A498 = assay: Growth inhibition of human A498 cells assessed as cell growth at 10 uM incubated for 48 hrs by sulforhodamine B assay relative to control; conditions: A498, 48 h, read-out: Activity
CAKI-1 = assay: Growth inhibition of human Caki1 cells assessed as cell growth at 10 uM incubated for 48 hrs by sulforhodamine B assay relative to control; conditions: CAKI-1, 48 h, read-out: Activity
RXF 393 = assay: Growth inhibition of human RXF393 cells assessed as cell growth at 10 uM incubated for 48 hrs by sulforhodamine B assay relative to control; conditions: RXF 393, 48 h, read-out: Activity
SN12C = assay: Growth inhibition of human SN12C cells assessed as cell growth at 10 uM incubated for 48 hrs by sulforhodamine B assay relative to control; conditions: read-out: Activity
TK-10 = assay: Growth inhibition of human TK10 cells assessed as cell growth at 10 uM incubated for 48 hrs by sulforhodamine B assay relative to control; conditions: TK-10, 48 h, read-out: Activity
UO-31 = assay: Growth inhibition of human UO31 cells assessed as cell growth at 10 uM incubated for 48 hrs by sulforhodamine B assay relative to control; conditions: UO-31, 48 h, read-out: Activity
MDA-MB-231 = assay: Growth inhibition of human MDA-MB-231 cells assessed as cell growth at 10 uM incubated for 48 hrs by sulforhodamine B assay relative to control; conditions: MDA-MB-231, 48 h, read-out: Activity
Hs-578T = assay: Growth inhibition of human Hs 578T cells assessed as cell growth at 10 uM incubated for 48 hrs by sulforhodamine B assay relative to control; conditions: read-out: Activity
BT-549 = assay: Growth inhibition of human BT549 cells assessed as cell growth at 10 uM incubated for 48 hrs by sulforhodamine B assay relative to control; conditions: BT-549, 48 h, read-out: Activity

Compound | growth at 10 µM (CCRF-CEM) [%] | growth at 10 µM (A549) [%] | growth at 10 µM (HOP-62) [%] | growth at 10 µM (HOP-92) [%] | growth at 10 µM (NCI-H226) [%] | growth at 10 µM (NCI-H522) [%] | growth at 10 µM (COLO 205) [%] | growth at 10 µM (HCC 2998) [%] | growth at 10 µM (HT-29) [%] | growth at 10 µM (KM12) [%] | growth at 10 µM (SF-268) [%] | growth at 10 µM (SF-539) [%] | growth at 10 µM (SNB-19) [%] | growth at 10 µM (SNB-75) [%] | growth at 10 µM (U-251) [%] | growth at 10 µM (LOX IMVI) [%] | growth at 10 µM (Malme-3M) [%] | growth at 10 µM (SK-MEL-2) [%] | growth at 10 µM (SK-MEL-28) [%] | growth at 10 µM (UACC-62) [%] | further results
O=C1NCC(c2cc3ccc4ccccc4c3[nH]c2=O)Nc2ccccc21 (configuration not stated) | 81.5 | 82.4 | 93.1 | 99.5 | 103 | 90.4 | 108 | 97.8 | 95 | 99.1 | 77.8 | 99.8 | 89.2 | 107 | 102 | 90.6 | 96.9 | 92.2 | 104 | 95.2 | growth at 10 µM (OVCAR-3): 107%; growth at 10 µM (OVCAR-4): 106%; growth at 10 µM (OVCAR-8): 78%; growth at 10 µM (NCI/ADR-RES): 99%; growth at 10 µM (A498): 88.6%; growth at 10 µM (CAKI-1): 85.7%; growth at 10 µM (RXF 393): 101%; growth at 10 µM (SN12C): 79.3%; growth at 10 µM (TK-10): 107%; growth at 10 µM (UO-31): 105%; growth at 10 µM (MDA-MB-231): 65.3%; growth at 10 µM (Hs-578T): 93.9%; growth at 10 µM (BT-549): 93.1%
CCCCn1c(=O)c(C2CNC(=O)c3ccccc3N2)cc2ccc(Cl)cc21 (configuration not stated) | 103 | 92.6 | 94 | 95.9 | 99.6 | 88.8 | 89.6 | 111 | 98.7 | 98.5 | 105 | 82 | 94.7 | 90 | 102 | 86.3 | 103 | 99.6 | 108 | 80.1 | growth at 10 µM (OVCAR-3): 112%; growth at 10 µM (OVCAR-4): 97.8%; growth at 10 µM (OVCAR-8): 99.3%; growth at 10 µM (NCI/ADR-RES): 101%; growth at 10 µM (A498): 91.3%; growth at 10 µM (CAKI-1): 72.5%; growth at 10 µM (RXF 393): 115%; growth at 10 µM (SN12C): 90.7%; growth at 10 µM (TK-10): 126%; growth at 10 µM (UO-31): 75.3%; growth at 10 µM (MDA-MB-231): 81.1%; growth at 10 µM (Hs-578T): 102%; growth at 10 µM (BT-549): 104%
CCCCn1c(=O)c(C2CNC(=O)c3ccccc3N2)cc2ccccc21 (configuration not stated) | 110 | 97.1 | 91.8 | 95.2 | 111 | 92.5 | 111 | 108 | 103 | 101 | 98.9 | 89.9 | 91 | 84 | 98 | 97.2 | 107 | 106 | 102 | 88.4 | growth at 10 µM (OVCAR-3): 99.8%; growth at 10 µM (OVCAR-4): 103%; growth at 10 µM (OVCAR-8): 114%; growth at 10 µM (NCI/ADR-RES): 100%; growth at 10 µM (A498): 88.7%; growth at 10 µM (CAKI-1): 85.8%; growth at 10 µM (RXF 393): 111%; growth at 10 µM (SN12C): 85.7%; growth at 10 µM (TK-10): 109%; growth at 10 µM (UO-31): 93.1%; growth at 10 µM (MDA-MB-231): 77.5%; growth at 10 µM (Hs-578T): 94.6%; growth at 10 µM (BT-549): 97.8%
CCCCOc1nc2c(C)cccc2cc1C1CNC(=O)c2ccccc2N1 (configuration not stated) | 34.3 | 60 | 56.2 | 62.6 | 89 | 44.8 | 90.8 | 101 | 61.4 | 56.4 | 66.9 | 68.3 | 47 | 56.6 | 63.7 | 60.8 | 86.1 | 62.9 | 66.4 | 29.1 | growth at 10 µM (OVCAR-3): 20%; growth at 10 µM (OVCAR-4): 71.7%; growth at 10 µM (OVCAR-8): 81.2%; growth at 10 µM (NCI/ADR-RES): 51.3%; growth at 10 µM (A498): 55.3%; growth at 10 µM (CAKI-1): 52.1%; growth at 10 µM (RXF 393): 78.3%; growth at 10 µM (SN12C): 70.9%; growth at 10 µM (TK-10): 98.7%; growth at 10 µM (UO-31): 67.8%; growth at 10 µM (MDA-MB-231): 65.3%; growth at 10 µM (Hs-578T): 69.7%; growth at 10 µM (BT-549): 74.5%
